From patent US7524964B2, “Tetrahydrothiopyrano pyrazole cannabinoid modulators” (Janssen Pharmaceutica NV, priority 2005, dated 2009) come the findings set out here.

Where two headings read alike, the source gives them in different places.

Assay [1] deals with T1, human CB-2 receptor (Homo sapiens, UniProt P34972).
T1 construct: expressed in transfected cells; host or cells: SK-N-MC cells, pcDNA3 CB-2 (human), semi-purified membranes
Kind of assay: Binding assay, cannabinoid CB2 receptor ([3H]-CP-55,940 displacement). The conditions noted are these: read-out: CB2 binding percent inhibition. The protocol: (§1) Binding Assay for CB1 or CB2 Agonists or Inverse Agonists
(§2) The human CB-1 and CB-2 receptors were stably expressed in SK-N-MC cells transfected with pcDNA3 CB-1 (human) or pcDNA3 CB-2 (human). The cells were grown in T-180 cell culture flasks under standard cell culture conditions at 37° C. in a 5% CO2 atmosphere. The cells were harvested by trypsinization and homogenized in a homogenization buffer (10 mM Tris, 0.2 mM MgCl2, 5 mM KCl, with protease inhibitors aprotinin, leupeptin, pepstatin A and bacitracin) and centrifuged (2000 g). The supernatant was then centrifuged in 2M sucrose (31,300 g) to produce a semi-purified membrane pellet. The pellet was resuspended in homogenization and store at −80° C.
(§3) On the day of the assay, the pellet was thawed on ice and diluted in assay buffer (50 mM Tris-HCl, 5 mM MgCl2, 2.5 mM EDTA, 0.5 mg/mL fatty acid free bovine serum albumin, pH 7.5). The diluted membrane was added with buffer, test compound or standard and the radioligand [H]^3+-CP-55,940_(0.2 nM) to the wells of a 96-well polypropylene plate. Non-specific binding was measured in wells containing 10 uM WIN 55,212. The plate was covered and incubated for 90 minutes at 30° C. The contents were then aspirated onto a Packard Unifilter G/C filter bottom plate prewet with 0.5% polyethyleneimine. The wells of the polypropylene plate were rinsed and aspirated seven times with a 0.9% saline-0.5% Tween 20 solution. The Unifilter plate was dried, a scintillation cocktail was added to each well and the counts representing binding were quantitated in a TopCount scintillation counter.
(§4) The IC50 binding values for compounds tested were calculated by linear regression and were obtained from studies in which varying compound concentrations were used. Where an IC50 was not obtained, test results are provided as percent inhibition at a test concentration of ^a0.2 μM, ^b1 μM or ^c10 μM.

For assay [2], the target named is human CB1 receptor (Homo sapiens, UniProt P21554). Kind of assay: Binding assay, cannabinoid CB1 receptor ([3H]-CP-55,940 displacement). The arrangement: expressed in transfected cells; host or cells: SK-N-MC cells, pcDNA3 CB-1 (human), semi-purified membranes. The following applies: for inhibition at 0.2 µM: test concentration 0.2 μM (superscript a). The protocol: as §1, §2, §3, §4
human CB1 receptor, sequence (P21554 whole entry): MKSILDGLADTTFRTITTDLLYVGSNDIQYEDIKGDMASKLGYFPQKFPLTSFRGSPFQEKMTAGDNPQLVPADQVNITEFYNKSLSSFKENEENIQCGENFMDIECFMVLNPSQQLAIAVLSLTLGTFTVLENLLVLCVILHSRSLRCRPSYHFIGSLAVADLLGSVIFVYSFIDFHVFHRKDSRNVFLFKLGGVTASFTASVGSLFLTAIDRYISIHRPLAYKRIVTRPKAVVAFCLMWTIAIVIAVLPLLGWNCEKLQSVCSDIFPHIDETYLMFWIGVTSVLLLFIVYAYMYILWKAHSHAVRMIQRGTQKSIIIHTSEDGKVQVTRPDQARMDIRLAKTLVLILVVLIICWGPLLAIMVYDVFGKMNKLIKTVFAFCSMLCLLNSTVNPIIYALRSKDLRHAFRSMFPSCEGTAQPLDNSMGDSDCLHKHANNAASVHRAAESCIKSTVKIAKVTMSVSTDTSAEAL

[3] abbreviates: test concentration 0.2 μM (superscript a).
Setting [4] is: read-out: CB1 binding percent inhibition.

T1 sequence (P34972 whole entry): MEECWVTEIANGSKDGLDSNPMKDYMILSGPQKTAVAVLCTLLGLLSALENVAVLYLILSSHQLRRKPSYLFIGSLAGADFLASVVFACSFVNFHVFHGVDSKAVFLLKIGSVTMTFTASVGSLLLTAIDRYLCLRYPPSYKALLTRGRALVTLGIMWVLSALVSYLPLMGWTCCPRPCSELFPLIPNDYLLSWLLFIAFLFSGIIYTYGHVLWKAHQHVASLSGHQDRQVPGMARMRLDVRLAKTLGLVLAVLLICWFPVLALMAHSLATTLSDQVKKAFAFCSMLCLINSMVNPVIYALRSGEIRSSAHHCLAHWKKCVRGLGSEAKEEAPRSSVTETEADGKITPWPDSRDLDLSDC

What is called inhibition is the change of the read-out against control, counted positive when it falls. With `O=C(NNc1ccc(Cl)cc1Cl)c1nn(-c2ccc(Cl)cc2Cl)c2c1CSC/C2=C\c1ccc(F)cc1` [Cpd 52, (7Z)-1-(2,4-dichloro-phenyl)-7-(4-fluoro-benzylidene)-1,4,6,7-tetrahydro-thiopyrano[4,3-c]pyrazole-3-carboxylic acid N′-(2,4-dichloro-phenyl)-hydrazide], the results for the inhibition at 0.2 µM in assay [1] (setting [3]) and in assay [2] (setting [4]) were 28% and 66%, respectively.
As for `C[C@@H](NS(=O)(=O)/C=C/c1nn(Cc2ccccc2)c2c1CSCC2)c1ccccc1` [Cpd 7, (E)-2-(1-benzyl-1,4,6,7-tetrahydro-thiopyrano[4,3-c]pyrazol-3-yl)-ethenesulfonic acid [(1R)-1-phenyl-ethyl]-amide], the inhibition at 1 µM is 44% in assay [1] (test concentration 1 μM (superscript b)) and 15% in assay [2] (test concentration 1 μM (superscript b), read-out: CB1 binding percent inhibition).
Consider `O=C(N[C@@H]1CCCC[C@H]1O)c1nn(-c2ccc(Cl)cc2Cl)c2c1CSC/C2=C\c1ccc(F)cc1` [Cpd 61, (7Z)-1-(2,4-dichloro-phenyl)-7-(4-fluoro-benzylidene)-1,4,6,7-tetrahydro-thiopyrano[4,3-c]pyrazole-3-carboxylic acid [(1R,2R)-2-hydroxy-cyclohexyl]-amide], for which the results for the inhibition at 0.2 µM in assay [1] (setting [3]) and in assay [2] (setting [4]) were 31% and 60%, respectively.
For `O=C(NN1CC2CCCC2C1)c1nn(-c2ccc(Cl)cc2Cl)c2c1CS(=O)(=O)C/C2=C\c1ccc(F)cc1` (stereo not drawn) [Cpd 104, (7Z)-1-(2,4-dichloro-phenyl)-7-(4-fluoro-benzylidene)-5,5-dioxo-4,5,6,7-tetrahydro-1H-5λ^6-thiopyrano[4,3-c]pyrazole-3-carboxylic acid (hexahydro-cyclopenta[c]pyrrol-2-yl)-amide] the same measures were 10% and 76%.
For orientation: IC50 means the concentration at which inhibition is half-maximal. Low values mean higher potency, high ones lower potency. As to `CC(C)(C)OC(=O)N1CCN(NC(=O)c2nn(-c3ccc(Cl)cc3Cl)c3c2CSC/C3=C\c2ccc(F)cc2)CC1` [Cpd 64, 4-{[(7Z)-1-(2,4-dichloro-phenyl)-7-(4-fluoro-benzylidene)-1,4,6,7-tetrahydro-thiopyrano[4,3-c]pyrazole-3-carbonyl]-amino}-piperazine-1-carboxylic acid tert-butyl ester], the inhibition at 0.2 µM in assay [1] turned out to be 0%. The molecule further came in with an IC50 in assay [2] of 24 nM.
`O=C(N[C@@H]1c2ccccc2C[C@@H]1O)c1nn(-c2ccc(F)cc2F)c2c1CS(=O)(=O)CC2Cc1cccc(F)c1` (stereo partly drawn) [Cpd 51, 1-(2,4-difluoro-phenyl)-7-(3-fluoro-benzyl)-5,5-dioxo-4,5,6,7-tetrahydro-1H-5λ^6-thiopyrano[4,3-c]pyrazole-3-carboxylic acid [(1R,2S)-2-hydroxy-indan-1-yl]-amide]: the inhibition at 0.2 µM in assay [1] (setting [3]) is 9%; in assay [2] (setting [4]), 35%.
Take `C[C@@H](NC(=O)c1nn(-c2ccc(Cl)cc2)c2c1CSC/C2=C\c1ccc(F)cc1)c1ccccc1` [Cpd 94, (7Z)-1-(4-chloro-phenyl)-7-(4-fluoro-benzylidene)-1,4,6,7-tetrahydro-thiopyrano[4,3-c]pyrazole-3-carboxylic acid [(1R)-1-phenyl-ethyl]-amide]: the inhibition at 0.2 µM in assay [1] amounted to 22%. In addition, the IC50 in assay [2] worked out at 11 nM.
With `C[C@@H](NC(=O)c1c2c(nn1-c1ccc(Cl)cc1Cl)/C(=C/c1ccc(F)cc1)CSC2)c1ccccc1` [Cpd 78, (7Z)-2-(2,4-dichloro-phenyl)-7-(4-fluoro-benzylidene)-2,4,6,7-tetrahydro-thiopyrano[4,3-c]pyrazole-3-carboxylic acid [(1R)-1-phenyl-ethyl]-amide], the inhibition at 0.2 µM in assay [1] (setting [3]) was 11%; in assay [2] (setting [4]), 62%.
For `O=C(N[C@@H]1CCC[C@H]1O)c1nn(-c2ccc(Cl)cc2Cl)c2c1CSC/C2=C\c1ccc(F)cc1` [Cpd 60, (7Z)-1-(2,4-dichloro-phenyl)-7-(4-fluoro-benzylidene)-1,4,6,7-tetrahydro-thiopyrano[4,3-c]pyrazole-3-carboxylic acid [(1R,2R)-2-hydroxy-cyclopentyl]-amide] the same measures were 17% and 60%.
